# Test results published in patent US10316017B2, “COT modulators and methods of use thereof” (Gilead Sciences, Inc., priority 2015, dated 2019).
# Read-outs that look alike come from different tables or passages of the source.
# Experiments:
# [1] = test system: TNFα production in LPS-stimulated human monocytes; assay: Cot Monocyte TNFα Cell Based Assay; details: Homo sapiens, Monocyte, read-out: EC50 TNF
# How it was run: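 TNFα release quantified by two-antibody TR-FRET, normalised to unstimulated (0%) and LPS-stimulated (100%) wells. Cells got a 1 h compound exposure at 37° C in 0.5% DMSO before 4 h challenge with 50 pg/ml LPS, at 5,000 cells/well.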
# [2] = biological target: T1, human Cot catalytic domain (30-397 amino acids) (Homo sapiens, UniProt P41279); assay: High Throughput Cot Biochemical Assay (KinEASE TR-FRET); details: read-out: IC50 HTRF
# T1 construct: Purified recombinant human Cot catalytic domain (30-397 amino acids) was purchased from Cama Biosciences; purchased Cama Biosciences (so in the source)
# How it was run: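 TR-FRET (KinEASE) read-out: Eu-labelled phospho-specific antibody binds XL665-tagged STK3 peptide (1 μM) phosphorylated by 5 nM human Cot kinase domain (residues 30-397). Reaction at 400 μM ATP, pH 7.0 MOPS buffer with 10 mM MgOAc, 1 mM DTT and 0.1% DMSO.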
# [3] = LPS-stimulated human monocytes, TNFα TR-FRET
# [4] = Cot KinEASE TR-FRET, 400 μM ATP
# [5] = TNFα in LPS-stimulated human monocytes
# [6] = Cot biochemical HTRF (KinEASE TR-FRET) assay
# [7] = Cot KinEASE TR-FRET (HTRF) biochemical assay, 400 μM ATP
# T1 sequence (P41279 30-397): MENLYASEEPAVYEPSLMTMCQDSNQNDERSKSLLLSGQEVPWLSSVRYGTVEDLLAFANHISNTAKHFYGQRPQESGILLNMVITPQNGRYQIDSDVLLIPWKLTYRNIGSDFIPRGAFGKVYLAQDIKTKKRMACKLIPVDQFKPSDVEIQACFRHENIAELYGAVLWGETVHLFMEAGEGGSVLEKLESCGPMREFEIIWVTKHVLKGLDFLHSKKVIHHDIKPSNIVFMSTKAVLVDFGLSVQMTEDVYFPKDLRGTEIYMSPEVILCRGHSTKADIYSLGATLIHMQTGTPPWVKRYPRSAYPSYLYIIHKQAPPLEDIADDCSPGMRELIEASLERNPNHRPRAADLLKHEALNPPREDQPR
SMILES,"EC50 [1, 3]","IC50 [2, 4]","EC50 [1, 5]","IC50 [2, 6]","IC50 [2, 7]"
"[2H][C@](Nc1cc(Cl)c2ncc(C#N)c(Nc3cccc(Cl)c3C(C)=O)c2c1)(c1ccc(F)cc1)c1cn(C2CC2)nn1 [Example 946, (S)-4-((2-acetyl-3-chlorophenyl)amino)-8-chloro-6-(((1-cyclopropyl-1H-1,2,3-triazol-4-yl) (4-fluorophenyl)methyl-d)amino)quinoline-3-carbonitrile]",≥ 1000 nM,745 nM,–,–,–
"COC[C@@H](C)Nc1c(C#N)cnc2c(Cl)cc(N[C@@H](c3ccccc3)c3cn(C4CCN(C(C)(C)C)CC4)nn3)cc12 [Example 556, 6-(((S)-(1-(1-(tert-butyl)piperidin-4-yl)-1H-1,2,3-triazol-4-yl)(phenyl)methyl)amino)-8-chloro-4-(((R)-1-methoxypropan-2-yl)amino) quinoline-3-carbonitrile]",–,–,> 10000 nM,725 nM,–
"N#Cc1cnc2c(Cl)cc(N[C@@H](c3ccccc3)c3cn(C4[C@H]5CNC[C@@H]45)nn3)cc2c1Nc1ccc(F)c(Cl)c1 (stereo partly drawn) [Example 529, 6-(((S)-(1-((1R,5S,6s)-3-azabicyclo[3.1.0]hexan-6-yl)-1H-1,2,3-triazol-4-yl)(phenyl)methyl)amino)-8-chloro-4-((3-chloro-4-fluorophenyl)amino) quinoline-3-carbonitrile]",–,–,71 nM,2 nM,–
"[2H][C@](Nc1cc(Cl)c2ncc(C#N)c(NC3CC34CCCCC4)c2c1)(c1ccc(F)cc1)c1cn(C2CC2)nn1 (stereo partly drawn) [Example 143, 8-chloro-6-(((S)-(1-cyclopropyl-1H-1,2,3-triazol-4-yl)(4-fluorophenyl)methyl-d)amino)-4-(spiro[2.5]octan-1-ylamino)quinoline-3-carbonitrile]",–,–,1170 nM,–,99 nM
"N#Cc1cnc2c(Cl)cc(N[C@@H](c3ccc(F)cc3)c3c[nH]nn3)cc2c1Nc1ccc(Cl)c(Cl)c1F [Example 449, (S)-8-chloro-4-((3,4-dichloro-2-fluorophenyl)amino)-6-(((4-fluorophenyl)(1H-1,2,3-triazol-4-yl)methyl)amino)quinoline-3-carbonitrile]",–,–,830 nM,161 nM,–
"CC(C)(C)CNc1c(C#N)cnc2c(Br)cc(N[C@@H](c3cccc(-c4ncco4)c3)c3cn(C4CC4)nn3)cc12 [Example 83, (S)-8-bromo-6-(((1-cyclopropyl-1H-1,2,3-triazol-4-yl) (3-(oxazol-2-yl)phenyl)methyl)amino)-4-(neopentylamino) quinoline-3-carbonitrile]",–,–,165 nM,–,2 nM

# Other lines, results leading:
"EC50 [1, 3]","IC50 [2, 4]","EC50 [1, 5]","IC50 [2, 6]","IC50 [2, 7]",SMILES
60 nM,1 nM,–,–,–,"Cc1c(-c2ccnnc2)cccc1[C@H](Nc1cc(C#N)c2ncc(C#N)c(NCC(C)(C)C)c2c1)c1cn(C2(C(F)F)CC2)nn1 [Example 1155, (S)-6-(((1-(1-(difluoromethyl)cyclopropyl)-1H-1,2,3-triazol-4-yl)(2-methyl-3-(pyridazin-4-yl)phenyl)methyl)amino)-4-(neopentylamino)quinoline-3,8-dicarbonitrile]"
≥ 1000 nM,3 nM,–,–,–,"Cc1c([C@H](Nc2cc(C#N)c3ncc(C#N)c(NCC(C)(C)C)c3c2)c2cn(C3(C(F)(F)F)CC3)nn2)cccc1-n1cnnc1 [Example 1072, (S)-6-(((2-methyl-3-(4H-1,2,4-triazol-4-yl)phenyl)(1-(1-(trifluoromethyl)cyclopropyl)-1H-1,2,3-triazol-4-yl)methyl)amino)-4-(neopentylamino)quinoline-3,8-dicarbonitrile]"
351 nM,11 nM,–,–,–,"Cc1c(-c2cn(C)cn2)cccc1[C@H](Nc1cc(Cl)c2ncc(C#N)c(NCC(C)(C)C)c2c1)c1cn(C2(C(F)(F)F)CC2)nn1 [Example 1119, (S)-8-chloro-6-(((2-methyl-3-(1-methyl-1H-imidazol-4-yl)phenyl)(1-(1-(trifluoromethyl)cyclopropyl)-1H-1,2,3-triazol-4-yl)methyl)amino)-4-(neopentylamino)quinoline-3-carbonitrile]"
